Assay results: the supplement of paper PMC4862054

How the values were obtained:
Conditions in all cases: incubation time: 72 h
BT-474 [1] = experiment: normalised response (% of control), CellTiter-Glo; higher = more viable cells (100 = DMSO, 0 = benzethonium chloride kill control)
Method in brief: (§1)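 Breast cancer cell lines in 20 µl suspension were added to 384-well plates containing compound at 5 concentrations, spaced in 10-fold steps across a 10,000-fold range chosen for each compound, and incubated for 72 h. CellTox Green fluorescence was read at 485/520 nm, followed by CellTiter-Glo luminescence after 10 min at room temperature. Signals on each plate were normalised so that 0.1 % DMSO equals 100 and a positive kill control equals 0. Every value in the table is the normalised signal at one concentration of the series.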

MDA-MB-453 [2] = experiment: as above
Method in brief: as §1

CAL-51 [3] = experiment: as above
Method in brief: as §1

HCC1937 [4] = experiment: as above
Method in brief: as §1

MFM-223 [5] = experiment: as above
Method in brief: as §1

HDQ-P1 [6] = experiment: as above
Method in brief: as §1

MDA-MB-468 [7] = experiment: as above
Method in brief: as §1

HCC1599 [8] = experiment: as above
Method in brief: as §1

SK-BR-3 [9] = experiment: as above
Method in brief: as §1

CAL-148 [10] = experiment: as above
Method in brief: as §1

DU-4475 [11] = experiment: as above
Method in brief: as §1

MCF-10A = experiment: as above
Method in brief: as §1

CAL-120 [12] = experiment: as above
Method in brief: as §1

Hs578T [13] = experiment: as above
Method in brief: as §1

BT-549 [14] = experiment: as above
Method in brief: as §1

CAL-85-1 [15] = experiment: as above
Method in brief: as §1

MDA-MB-231 [16] = experiment: as above
Method in brief: as §1

HCC1143 [17] = experiment: as above
Method in brief: as §1

MDA-MB-436 [18] = experiment: as above
Method in brief: as §1

BT-474 [19] = experiment: normalised viability (% of control), CellTiter-Blue; higher = more viable cells (100 = DMSO, 0 = benzethonium chloride kill control)
Experimental: (§2)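 DSRT, CellTiter-Blue viability, 72 h incubation. Signal is normalised to DMSO and benzethonium chloride controls. Value is the normalised response at dose 1.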

MDA-MB-453 [20] = experiment: as above
Experimental: as §2

CAL-51 [21] = experiment: as above
Experimental: as §2

HCC1937 [22] = experiment: as above
Experimental: as §2

MFM-223 [23] = experiment: as above
Experimental: as §2

HDQ-P1 [24] = experiment: as above
Experimental: as §2

MDA-MB-468 [25] = experiment: as above
Experimental: as §2

HCC1599 [26] = experiment: as above
Experimental: as §2

SK-BR-3 [27] = experiment: as above
Experimental: as §2

CAL-148 [28] = experiment: as above
Experimental: as §2

DU-4475 [29] = experiment: as above
Experimental: as §2

CAL-120 [30] = experiment: as above
Experimental: as §2

Hs578T [31] = experiment: as above
Experimental: as §2

BT-549 [32] = experiment: as above
Experimental: as §2

CAL-85-1 [33] = experiment: as above
Experimental: as §2

MDA-MB-231 [34] = experiment: as above
Experimental: as §2

HCC1143 [35] = experiment: as above
Experimental: as §2

MDA-MB-436 [36] = experiment: as above
Experimental: as §2

SMILES | normalised response (BT-474 [1]) | normalised response (MDA-MB-453 [2]) | normalised response (CAL-51 [3]) | normalised response (HCC1937 [4]) | normalised response (MFM-223 [5]) | normalised response (HDQ-P1 [6]) | normalised response (MDA-MB-468 [7]) | normalised response (HCC1599 [8]) | normalised response (SK-BR-3 [9]) | normalised response (CAL-148 [10]) | normalised response (DU-4475 [11]) | normalised response (MCF-10A) | normalised response (CAL-120 [12]) | normalised response (Hs578T [13]) | normalised response (BT-549 [14]) | normalised response (CAL-85-1 [15]) | normalised response (MDA-MB-231 [16]) | normalised response (HCC1143 [17]) | normalised response (MDA-MB-436 [18]) | normalised viability (BT-474 [19]) | normalised viability (MDA-MB-453 [20]) | normalised viability (CAL-51 [21]) | normalised viability (HCC1937 [22]) | normalised viability (MFM-223 [23]) | normalised viability (HDQ-P1 [24]) | normalised viability (MDA-MB-468 [25]) | normalised viability (HCC1599 [26]) | normalised viability (SK-BR-3 [27]) | normalised viability (CAL-148 [28]) | normalised viability (DU-4475 [29]) | normalised viability (CAL-120 [30]) | normalised viability (Hs578T [31]) | normalised viability (BT-549 [32]) | normalised viability (CAL-85-1 [33]) | normalised viability (MDA-MB-231 [34]) | normalised viability (HCC1143 [35]) | normalised viability (MDA-MB-436 [36])
O=C(O)CC[C@H]1CC[C@@](c2cc(F)ccc2F)(S(=O)(=O)c2ccc(Cl)cc2)CC1 [MK-0752] (0.1 nM) | 101% | 116% | 68.8% | 100% | 106% | 97.8% | 102% | 79.3% | 111% | 101% | 97.5% | 116% | 95.5% | 98.7% | 103% | 99.5% | 104% | 102% | 101% | 119% | 117% | 98.2% | 84.8% | 102% | 99.9% | 96.7% | 103% | 94.4% | 106% | 106% | 88.8% | 106% | 117% | 100% | 99.2% | 99.7% | 109%
CN1CCN(c2nc(C3=C(c4c[nH]c5ccccc45)C(=O)NC3=O)c3ccccc3n2)CC1 [Sotrastaurin] (1 nM) | 90.6% | 96.9% | 100% | 99% | 93% | 99.8% | 104% | 89.5% | 93.3% | 94.8% | 97.5% | 88% | 97% | 99.2% | 103% | 93% | 98% | 89.9% | 94% | 116% | 102% | 97% | 89.5% | 100% | 85.2% | 97.7% | 95.2% | 91.3% | 116% | 104% | 117% | 101% | 86.1% | 109% | 94.1% | 131% | 104%
CC(C)C[C@H](NC(=O)[C@H](CCc1ccccc1)NC(=O)CN1CCOCC1)C(=O)N[C@@H](Cc1ccccc1)C(=O)N[C@@H](CC(C)C)C(=O)[C@@]1(C)CO1 [Carfilzomib] (0.1 nM) | 108% | 108% | 124% | 105% | 104% | 110% | 109% | 120% | 105% | 109% | 103% | 106% | 103% | 100% | 97.3% | 105% | 107% | 104% | 105% | 116% | 96.9% | 110% | 84.8% | 83.4% | 95.6% | 100% | 100% | 99.7% | 99.9% | 107% | 89.8% | 100% | 105% | 95.5% | 132% | 100% | 101%
CC/C(=C(\c1ccccc1)c1ccc(OCCN(C)C)cc1)c1ccccc1 [Tamoxifen] (1 nM) | 105% | 110% | 99.3% | 102% | 102% | 103% | 104% | 94.3% | 103% | 103% | 98.6% | 111% | 99% | 102% | 96.4% | 101% | 106% | 109% | 109% | 81.7% | 107% | 90.2% | 88.8% | 93.3% | 105% | 106% | 84.7% | 102% | 113% | 104% | 104% | 118% | 81.6% | 110% | 95.1% | 104% | 96%
Cc1c(N)nc([C@H](CC(N)=O)NC[C@H](N)C(N)=O)nc1C(=O)N[C@H](C(=O)N[C@H](C)[C@@H](O)[C@H](C)C(=O)N[C@H](C(=O)NCCc1nc(-c2nc(C(=O)NCCC[S+](C)C)cs2)cs1)[C@@H](C)O)[C@@H](OC1OC(CO)C(O)C(O)C1OC1OC(CO)C(O)C(OC(N)=O)C1O)c1cnc[nH]1 (some centres not stated) [Bleomycin] (1 nM) | 96.3% | 105% | 113% | 98% | 96.5% | 96.4% | 95.5% | 90.8% | 103% | 93.2% | 97.1% | 93.2% | 99% | 97.3% | 104% | 97.4% | 92.3% | 96.4% | 102% | 84.4% | 91.7% | 94.5% | 92.7% | 102% | 91.5% | 85.4% | 126% | 83.4% | 112% | 116% | 89.3% | 98.8% | 97.3% | 97.8% | 86.7% | 92.5% | 121%
Cn1nnc2c(C(N)=O)ncn2c1=O [Temozolomide] (1 nM) | 95.4% | 97.6% | 92.3% | 99.3% | 94.9% | 96.3% | 100% | 90% | 98.3% | 96.2% | 97.5% | 104% | 99.5% | 99.8% | 104% | 97.5% | 94.8% | 95% | 92.3% | 86.8% | 98.1% | 95.5% | 113% | 102% | 96.6% | 96% | 109% | 126% | 103% | 128% | 107% | 102% | 100% | 103% | 93% | 118% | 95.7%
